In publication PMC10230575 (Bioorganic & medicinal chemistry letters, 2022):
Residue numbers refer to the chain shown, from its start.

Tests used:
[1] = test system: human wild-type (WT) Slack channels; settings: whole-cell patch clamp, HEK-293, human WT Slack; cited from earlier work
mouse model of Kcnt1 GOF = settings: orally available; cited from earlier work
[2] = target: T1, wild-type human (WT) Slack (Homo sapiens, UniProt Q5JUK3); test: Tl+ flux assay in HEK-293 cells stably expressing WT Slack; format: cell-based; settings: for Slack activity profile in words: running text and footnotes, WT Slack Tl+ flux; for IC50 / EC50 (result in words): Table 3, no mode assigned
T1 sequence (Q5JUK3 1-1235 isoform Q5JUK3-3): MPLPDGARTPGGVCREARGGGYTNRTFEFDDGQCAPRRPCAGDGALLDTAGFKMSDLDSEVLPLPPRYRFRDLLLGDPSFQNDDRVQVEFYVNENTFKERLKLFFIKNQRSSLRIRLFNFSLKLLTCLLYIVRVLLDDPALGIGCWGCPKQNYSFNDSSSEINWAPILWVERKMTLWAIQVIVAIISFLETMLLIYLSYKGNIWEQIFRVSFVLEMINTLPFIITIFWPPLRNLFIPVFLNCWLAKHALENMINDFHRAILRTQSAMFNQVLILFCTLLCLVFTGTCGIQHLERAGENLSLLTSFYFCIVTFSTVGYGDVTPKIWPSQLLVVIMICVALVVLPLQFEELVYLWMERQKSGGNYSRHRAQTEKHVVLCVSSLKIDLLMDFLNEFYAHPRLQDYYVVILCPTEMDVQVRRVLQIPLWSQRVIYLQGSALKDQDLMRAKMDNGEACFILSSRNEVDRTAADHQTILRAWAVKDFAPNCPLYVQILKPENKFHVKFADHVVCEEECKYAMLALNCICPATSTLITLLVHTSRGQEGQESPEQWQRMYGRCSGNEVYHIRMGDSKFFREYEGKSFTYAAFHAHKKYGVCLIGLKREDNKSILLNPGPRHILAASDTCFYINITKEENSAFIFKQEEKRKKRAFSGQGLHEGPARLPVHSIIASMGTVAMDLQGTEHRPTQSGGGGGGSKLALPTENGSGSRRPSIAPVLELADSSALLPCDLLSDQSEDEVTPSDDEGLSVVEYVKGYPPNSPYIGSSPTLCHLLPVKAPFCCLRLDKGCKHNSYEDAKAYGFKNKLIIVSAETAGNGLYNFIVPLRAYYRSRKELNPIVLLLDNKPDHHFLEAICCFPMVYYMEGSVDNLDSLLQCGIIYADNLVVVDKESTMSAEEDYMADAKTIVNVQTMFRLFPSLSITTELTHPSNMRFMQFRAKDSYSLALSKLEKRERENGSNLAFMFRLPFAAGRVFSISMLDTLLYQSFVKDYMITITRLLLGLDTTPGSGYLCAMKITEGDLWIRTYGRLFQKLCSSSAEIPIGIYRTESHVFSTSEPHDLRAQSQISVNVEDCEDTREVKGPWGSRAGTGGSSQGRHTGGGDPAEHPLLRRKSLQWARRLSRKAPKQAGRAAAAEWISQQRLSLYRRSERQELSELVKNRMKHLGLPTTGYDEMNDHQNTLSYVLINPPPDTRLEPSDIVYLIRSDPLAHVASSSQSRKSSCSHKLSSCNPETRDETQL

Maxi-K (Slo1 α1/β3) = Maxi-K (Slo1 α1/β3) (Homo sapiens, UniProt Q12791); test: Tl+ flux assay in HEK-293 cells expressing Maxi-K; format: cell-based; settings: for Maxi-K (Slo1 α1/β3) Efficacy: 30 µM test compound, % of maximum response for paxilline; for Maxi-K (Slo1 α1/β3) IC50: CRC, HEK-293 expressing Maxi-K; for Maxi-K (Slo1 α1/β3) IC50 / Maxi-K inhibition in words: Tl+ flux
Chain of Maxi-K (Slo1 α1/β3) (Q12791 whole entry, species assumed): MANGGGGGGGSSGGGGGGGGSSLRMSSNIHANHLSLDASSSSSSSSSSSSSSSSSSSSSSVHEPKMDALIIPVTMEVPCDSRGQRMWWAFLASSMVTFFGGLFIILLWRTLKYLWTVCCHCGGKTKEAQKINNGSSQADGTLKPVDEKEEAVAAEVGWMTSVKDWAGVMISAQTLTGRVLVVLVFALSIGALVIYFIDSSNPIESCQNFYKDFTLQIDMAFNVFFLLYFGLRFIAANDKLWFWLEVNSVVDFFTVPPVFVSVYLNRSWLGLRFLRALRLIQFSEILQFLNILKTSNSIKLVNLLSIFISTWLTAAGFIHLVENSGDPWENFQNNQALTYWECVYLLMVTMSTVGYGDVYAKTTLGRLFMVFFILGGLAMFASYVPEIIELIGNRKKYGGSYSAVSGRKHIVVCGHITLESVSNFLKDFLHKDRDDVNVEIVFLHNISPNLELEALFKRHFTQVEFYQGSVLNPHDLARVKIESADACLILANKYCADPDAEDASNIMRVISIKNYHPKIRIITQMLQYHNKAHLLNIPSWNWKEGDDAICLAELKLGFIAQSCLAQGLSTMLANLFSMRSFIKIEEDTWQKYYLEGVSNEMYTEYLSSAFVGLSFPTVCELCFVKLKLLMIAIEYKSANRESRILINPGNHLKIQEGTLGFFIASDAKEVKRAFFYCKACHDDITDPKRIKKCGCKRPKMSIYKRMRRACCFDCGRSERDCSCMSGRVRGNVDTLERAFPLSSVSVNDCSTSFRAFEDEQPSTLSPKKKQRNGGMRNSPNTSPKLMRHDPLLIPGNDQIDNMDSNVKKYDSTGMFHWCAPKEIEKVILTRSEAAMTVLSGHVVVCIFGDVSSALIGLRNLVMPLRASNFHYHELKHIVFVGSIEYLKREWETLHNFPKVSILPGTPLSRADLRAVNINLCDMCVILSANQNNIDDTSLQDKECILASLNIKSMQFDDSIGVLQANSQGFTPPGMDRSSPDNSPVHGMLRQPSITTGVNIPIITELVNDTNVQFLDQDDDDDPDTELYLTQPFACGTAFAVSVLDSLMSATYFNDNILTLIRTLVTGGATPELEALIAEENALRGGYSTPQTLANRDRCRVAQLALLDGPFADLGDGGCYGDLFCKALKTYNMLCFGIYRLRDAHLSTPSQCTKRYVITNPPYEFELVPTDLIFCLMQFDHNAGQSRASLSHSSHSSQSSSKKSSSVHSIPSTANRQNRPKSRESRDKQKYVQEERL
Chain of Maxi-K (Slo1 α1/β3) (Q9NPA1 whole entry partner, species assumed): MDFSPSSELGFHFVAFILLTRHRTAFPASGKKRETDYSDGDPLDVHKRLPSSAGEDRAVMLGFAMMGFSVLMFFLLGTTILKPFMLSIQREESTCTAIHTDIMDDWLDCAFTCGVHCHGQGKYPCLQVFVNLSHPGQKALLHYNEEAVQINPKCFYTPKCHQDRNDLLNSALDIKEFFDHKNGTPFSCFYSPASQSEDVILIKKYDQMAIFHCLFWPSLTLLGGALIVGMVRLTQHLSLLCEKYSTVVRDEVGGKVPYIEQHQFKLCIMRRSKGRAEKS

[3] = test system: cortical neuronal culture; settings: overexcited, spontaneously firing cortical neuronal culture; cited from earlier work
A934T Slack = target: T2, A934T Slack (Homo sapiens, UniProt Q5JUK3, A915T); test: Tl+ flux assay in HEK-293 cells expressing A934T Slack; settings: Table 6; 30 µM test compound, % of maximum response for VU0606170
T2 sequence (Q5JUK3 1-1235 isoform Q5JUK3-3 A934T): T1 sequence (Q5JUK3 1-1235 isoform Q5JUK3-3) with A934T

SMILES | Slack activity profile in words [2] | other results
Cc1cccc(CC(=O)Nc2cnn(-c3cccc(C(=O)NCc4ccccc4-n4cncn4)c3)c2)c1 [Compound 1] | – | IC50 [1]: 3.2 µM
C[C@H](NC(=O)c1cc(C(F)(F)F)nn1C)c1nc(-c2ccnc(C(F)(F)F)c2)no1 [Compound 3] | – | EEG phenotype (mouse model of Kcnt1 GOF): normalizes the EEG phenotype
COc1ccc(Cl)cc1NC(=O)CN1CCN(S(=O)(=O)N2CCC(C)CC2)CC1 [Compound 4] | – | IC50 / EC50 (IC50, inhibitors) ([2]; Table 1, CRC, Tl+ flux, HEK-293 WT Slack, Mode Inh): 2.4 µM; Maxi-K (Slo1 α1/β3) Efficacy (Maxi-K (Slo1 α1/β3)): inactive; Maxi-K (Slo1 α1/β3) IC50 (Maxi-K (Slo1 α1/β3)): inactive; firing rate [3]: decreased the firing rate
CC1CCN(S(=O)(=O)N2CCN(CC(=O)Nc3ccccc3Cl)CC2)CC1 [Compound 15] | mixed profile | –
Cc1ccccc1NC(=O)CN1CCN(S(=O)(=O)N2CCC(C)CC2)CC1 [Compound 18] | mixed profile | –
Cc1cccc(NC(=O)CN2CCN(S(=O)(=O)N3CCC(C)CC3)CC2)c1 [Compound 19] | mixed profile | –
COc1ccccc1NC(=O)CN1CCN(S(=O)(=O)N2CCC(C)CC2)CC1 [Compound 21] | maintained the inhibitory profile | –
COc1cccc(NC(=O)CN2CCN(S(=O)(=O)N3CCC(C)CC3)CC2)c1 [Compound 22] | mixed profile | –
COc1ccc(F)cc1NC(=O)CN1CCN(S(=O)(=O)N2CCC(C)CC2)CC1 [Compound 24] | – | A934T Efficacy (A934T Slack): 100%
COc1ccc(C(F)(F)F)cc1NC(=O)CN1CCN(S(=O)(=O)N2CCC(C)CC2)CC1 [Compound 27] | – | Maxi-K inhibition in words (Maxi-K (Slo1 α1/β3)): weak inhibition
CC1CCN(S(=O)(=O)N2CCN(CC(=O)Nc3cc(Cl)ccc3F)CC2)CC1 [Compound 29] | not effective | –
CC1CCN(S(=O)(=O)N2CCN(CC(=O)Nc3cc(Cl)ccc3Cl)CC2)CC1 [Compound 30] | not effective | –
Cc1ccc(Cl)cc1NC(=O)CN1CCN(S(=O)(=O)N2CCC(C)CC2)CC1 [Compound 31] | not effective | –
COc1ccc(Cl)cc1NC(=O)CN1CCN(S(=O)(=O)N2CCN(S(=O)(=O)N3CCCCC3)CC2)CC1 [Compound 43] | – | IC50 / EC50 (result in words) [2]: inactive
COc1ccc(Cl)cc1NC(=O)CN1CCN(S(=O)(=O)N2CCN(S(=O)(=O)N3CCOCC3)CC2)CC1 [Compound 44] | – | IC50 / EC50 (result in words) [2]: inactive
COc1ccc(Cl)cc1NC(=O)CN1CCN(S(=O)(=O)N2CCN(S(=O)(=O)C3CCCCC3)CC2)CC1 [Compound 45] | – | IC50 / EC50 (result in words) [2]: inactive

SMILES | Slack activity profile in words [2] | other results
COc1ccc(Cl)cc1NC(=O)CN1CCN(S(=O)(=O)N2CCN(S(=O)(=O)c3ccc(C)cc3)CC2)CC1 [Compound 47] | – | IC50 / EC50 (result in words) [2]: inactive
COc1ccc(Cl)cc1NC(=O)CN1CCN(S(=O)(=O)N2CCN(S(=O)(=O)N3CCC(F)(F)C3)CC2)CC1 [Compound 50] | weak activators | –
COc1ccc(Cl)cc1NC(=O)CN1CCN(S(=O)(=O)N2CCN(C(=O)N3CCCCC3)CC2)CC1 [Compound 51] | weak activators | –
CCCC1CCN(C(=O)N2CCN(S(=O)(=O)N3CCN(CC(=O)Nc4cc(Cl)ccc4OC)CC3)CC2)CC1 [Compound 52] | weak inhibitor | –
COc1ccc(Cl)cc1NC(=O)CN1CCN(S(=O)(=O)N2CCN(C(=O)N3CCC(C(C)C)CC3)CC2)CC1 [Compound 53] | mixed profile | –
COc1ccc(Cl)cc1NC(=O)CN1CCN(S(=O)(=O)N2CCN(C(=O)N3CCCCCC3)CC2)CC1 [Compound 55] | weak activators | –
COc1ccc(Cl)cc1NC(=O)[C@H](C)N1CCN(S(=O)(=O)N2CCC(C(F)(F)F)CC2)CC1 [Compound 61] | – | Maxi-K (Slo1 α1/β3) Efficacy (Maxi-K (Slo1 α1/β3)): inactive; Maxi-K (Slo1 α1/β3) IC50 (Maxi-K (Slo1 α1/β3)): inactive; Maxi-K inhibition in words (Maxi-K (Slo1 α1/β3)): inactive
COc1ccc(Cl)cc1NC(=O)CN1CCN(S(=O)(=O)N2CCC(C)CC2)[C@@H](C)C1 [Compound 68] | significantly reduced potency | –
COc1ccc(Cl)cc1NC(=O)CN1CCN(S(=O)(=O)N2CCC(C)CC2)C[C@@H]1C [Compound 71] | well tolerated | –
COc1ccc(Cl)cc1NC(=O)CN(C)CCN(C)S(=O)(=O)N1CCC(C)CC1 [Compound 81] | retained inhibitory activity but exhibited reduced potency | –
COc1ccc(Cl)cc1NC(=O)CN1CCN(S(=O)(=O)N2CCC(C)CC2)[C@H](C)C1 [Compound 86] | significantly reduced potency | –
COc1ccc(Cl)cc1NC(=O)CN1CCN(S(=O)(=O)N2CCC(C)CC2)C[C@H]1C [Compound 87] | equipotent to hit compound 4 | Maxi-K inhibition in words (Maxi-K (Slo1 α1/β3)): weak inhibition
COc1ccc(Cl)cc1NC(=O)N1CC2(CCN(S(=O)(=O)N3CCC(C)CC3)CC2)C1 [Compound 88] | weak activators | –
COc1ccc(Cl)cc1NC(=O)N1CC2(C1)CN(S(=O)(=O)N1CCC(C)CC1)C2 [Compound 90] | weak inhibitor | –
COc1ccc(Cl)cc1NC(=O)N1C[C@@H]2CN(S(=O)(=O)N3CCC(C)CC3)C[C@@H]2C1 [Compound 91] | devoid of activity | –
COc1ccc(Cl)cc1NC(=O)N1CCCN(S(=O)(=O)N2CCC(C)CC2)CC1 [Compound 92] | moderately potent | –
